# Read-outs that look alike come from different tables or passages of the source.
# What was measured:
# [1] = target: kappa (h) (KOP) (agonist radioligand) (Homo sapiens, UniProt P41145); conditions: at the tested concentration, negative values set to zero
# [2] = target: D2L (h) (antagonist radioligand) (Homo sapiens, UniProt P14416); conditions: at the tested concentration; negative values set to zero
# [3] = Hepatocyte stability, human
# Description: • 1. 10 mM stock solutions of test compounds and positive control compound were prepared in appropriate solvent (DMSO). • 2. In separate conical tubes, 10 mM test compound and positive controls were diluted to 100 μM by combining 198 μL of 50% acetonitrile/50% water and 2 μL of 10 mM stock. Preparation of Hepatocytes • 1. Incubation medium (William's E Medium supplemented with GlutaMAX) and hepatocyte thawing medium were placed in a 37C water bath and warmed for at least 15 minutes prior to use. • 2. A vial of cryopreserved hepatocytes was thawed by placing the vial in a 37C water bath and gently shaken for 2 minutes. After thawing was completed, the vial was cleaned with 70% ethanol and transferred to a biosafety cabinet. • 3. Using wide-bore pipette tips, hepatocytes were transferred into a 50 mL conical tube containing thawing medium. The 50 mL conical tube was placed into a centrifuge and spun at 100 g for 10 minutes. […] Using AO/PI Staining, cells were counted to determine the viable cell density. Cells were diluted with incubation medium to a working cell density of 0.5×10^6 viable cells/mL. Procedure for Stability Determination • 1. 198 μL of hepatocytes were pipetted into each well of a 96-well non-coated plate. The plate was placed in the incubator to allow the hepatocytes to warm for 10 minutes. • 2. 2 μL of the 100 μM test compound or positive control was pipetted into respective wells of the 96-well non-coated plate to start the reaction. The plate was returned to the incubator for the designed time points. • 3. The contents of the wells were removed in 25 μL aliquots at time points of 0.5, 15, 30, 60, 90 and 120 minutes. The aliquots were then mixed with 6 volumes (150 μL) of acetonitrile containing an internal standard, IS (100 nM alprazolam, 200 nM caffeine and 100 nM tolbutamide), to terminate the reaction. Samples were vortexed for 5 minutes and centrifuged for 45 minutes at 3,220 g. Aliquots of 100 μL of supernatant were diluted with 100 μL ultra-pure water, and the mixture was used for LC/MS/MS analysis. All incubations were performed in duplicate. Data Analysis
# (§1) All calculations were carried out using Microsoft Excel and according to standard analysis methods that are known in the art.
# CYP2C8 = target: T1, CYP2C8 (Homo sapiens, UniProt P10632); assay: Incubation with recombinant CYP2C8; conditions: for t1/2: unit not given
# T1 sequence (P10632 1-490): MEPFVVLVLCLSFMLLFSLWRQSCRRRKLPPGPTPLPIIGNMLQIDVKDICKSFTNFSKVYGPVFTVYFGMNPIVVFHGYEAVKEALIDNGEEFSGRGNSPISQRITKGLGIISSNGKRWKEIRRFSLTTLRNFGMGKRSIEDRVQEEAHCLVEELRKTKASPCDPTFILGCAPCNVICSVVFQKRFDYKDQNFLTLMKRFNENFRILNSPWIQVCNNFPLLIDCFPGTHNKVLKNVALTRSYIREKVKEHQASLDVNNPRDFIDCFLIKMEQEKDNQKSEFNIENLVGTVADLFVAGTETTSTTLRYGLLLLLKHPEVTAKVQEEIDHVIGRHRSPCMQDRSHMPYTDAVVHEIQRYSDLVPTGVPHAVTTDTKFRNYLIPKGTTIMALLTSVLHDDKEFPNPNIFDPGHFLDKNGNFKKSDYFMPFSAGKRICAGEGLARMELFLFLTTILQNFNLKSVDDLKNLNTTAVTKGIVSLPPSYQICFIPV
# CYP3A4 = CYP3A4 (Homo sapiens, UniProt P08684); assay: Incubation with recombinant CYP3A4
# Sequence of CYP3A4 (P08684 whole entry): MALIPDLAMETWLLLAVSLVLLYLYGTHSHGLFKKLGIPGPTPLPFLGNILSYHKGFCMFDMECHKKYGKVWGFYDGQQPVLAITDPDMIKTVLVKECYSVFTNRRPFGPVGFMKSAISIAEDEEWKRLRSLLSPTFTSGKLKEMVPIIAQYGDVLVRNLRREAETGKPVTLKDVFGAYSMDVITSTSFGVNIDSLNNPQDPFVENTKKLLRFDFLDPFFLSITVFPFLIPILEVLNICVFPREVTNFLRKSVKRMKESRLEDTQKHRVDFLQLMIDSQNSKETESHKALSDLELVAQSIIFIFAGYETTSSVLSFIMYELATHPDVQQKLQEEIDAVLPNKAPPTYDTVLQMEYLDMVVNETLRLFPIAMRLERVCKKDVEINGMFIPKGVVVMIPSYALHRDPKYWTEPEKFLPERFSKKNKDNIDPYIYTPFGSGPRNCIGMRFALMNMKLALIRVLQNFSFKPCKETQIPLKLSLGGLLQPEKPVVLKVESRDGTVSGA
# [4] = Whole blood stability, rat; conditions: rat, blood; for Remaining Percentages (%) 0 min: 0 h, 1 μM
# Description: (§2) Procedures for blood Stability. • A. 398 μL of blood from each species was added to an incubation plate, which was pre-warmed at 37C for 15 minutes. • B. After the pre-incubation, 2 μL of working solution (test compounds or control compounds) was spiked to 398 μL of blood to reach a final concentration of 1 μM for test compounds and 5 μM for control compounds. The final concentration of organic solvents is 0.5%. The assays were performed in duplicate. • C. The reaction samples were incubated at 37C. • D. Aliquots of 50 μL were taken from the reaction samples at 0, 15, 30, 60 and 120 minutes. The reaction was stopped by the addition of 50 μL ultrapure water and 400 μL cold acetonitrile. • E. All samples were vortexed for 10 minutes, followed by centrifugation at 3,220 g for 40 minutes to precipitate proteins. 100 μL of the supernatant was then transferred to a new plate. The supernatant was diluted with ultrapure water as needed for detection by LC-MS/MS. Sample Analysis
# (§3) Samples were analyzed by LC-MS/MS to measure the concentration of the test compounds.
# as §1
# CYP2E1 = CYP2E1 (Homo sapiens, UniProt P05181); assay: Incubation with recombinant CYP2E1; conditions: for t1/2: unit not given
# Sequence of CYP2E1 (P05181 whole entry): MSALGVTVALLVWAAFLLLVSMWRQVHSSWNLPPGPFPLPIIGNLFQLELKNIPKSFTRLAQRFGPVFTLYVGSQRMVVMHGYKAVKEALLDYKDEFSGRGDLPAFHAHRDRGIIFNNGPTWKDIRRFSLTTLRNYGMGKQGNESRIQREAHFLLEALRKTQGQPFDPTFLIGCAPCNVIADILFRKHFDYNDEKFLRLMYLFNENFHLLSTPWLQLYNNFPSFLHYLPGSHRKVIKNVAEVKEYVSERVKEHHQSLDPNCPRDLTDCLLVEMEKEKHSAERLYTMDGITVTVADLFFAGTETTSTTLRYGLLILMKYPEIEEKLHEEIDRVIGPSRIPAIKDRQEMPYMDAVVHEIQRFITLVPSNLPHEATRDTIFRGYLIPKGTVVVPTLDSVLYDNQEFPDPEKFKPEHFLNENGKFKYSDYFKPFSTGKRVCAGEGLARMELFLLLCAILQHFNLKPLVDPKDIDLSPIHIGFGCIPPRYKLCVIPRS
# CYP2D6 = CYP2D6 (Homo sapiens, UniProt P10635); assay: Incubation with recombinant CYP2D6
# Sequence of CYP2D6 (P10635 whole entry): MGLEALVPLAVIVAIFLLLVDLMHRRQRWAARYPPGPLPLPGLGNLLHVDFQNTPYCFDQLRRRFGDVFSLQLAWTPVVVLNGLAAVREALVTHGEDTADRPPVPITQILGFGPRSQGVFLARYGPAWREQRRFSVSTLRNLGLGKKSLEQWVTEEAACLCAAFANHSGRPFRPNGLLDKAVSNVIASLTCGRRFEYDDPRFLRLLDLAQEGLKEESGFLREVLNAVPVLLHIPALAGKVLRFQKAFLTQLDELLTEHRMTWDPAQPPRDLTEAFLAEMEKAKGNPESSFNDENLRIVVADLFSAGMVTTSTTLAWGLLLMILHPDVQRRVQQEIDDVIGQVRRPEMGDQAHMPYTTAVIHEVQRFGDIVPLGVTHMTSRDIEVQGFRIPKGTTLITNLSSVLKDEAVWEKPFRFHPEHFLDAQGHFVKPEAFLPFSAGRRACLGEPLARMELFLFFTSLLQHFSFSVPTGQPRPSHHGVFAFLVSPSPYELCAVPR
# [5] = Whole blood stability, dog
# Description: as §2, §3, §1
# CYP2B6 = target: T2, CYP2B6 (Homo sapiens, UniProt P20813); assay: Incubation with recombinant CYP2B6; conditions: for t1/2: unit not given
# T2 sequence (P20813 1-491): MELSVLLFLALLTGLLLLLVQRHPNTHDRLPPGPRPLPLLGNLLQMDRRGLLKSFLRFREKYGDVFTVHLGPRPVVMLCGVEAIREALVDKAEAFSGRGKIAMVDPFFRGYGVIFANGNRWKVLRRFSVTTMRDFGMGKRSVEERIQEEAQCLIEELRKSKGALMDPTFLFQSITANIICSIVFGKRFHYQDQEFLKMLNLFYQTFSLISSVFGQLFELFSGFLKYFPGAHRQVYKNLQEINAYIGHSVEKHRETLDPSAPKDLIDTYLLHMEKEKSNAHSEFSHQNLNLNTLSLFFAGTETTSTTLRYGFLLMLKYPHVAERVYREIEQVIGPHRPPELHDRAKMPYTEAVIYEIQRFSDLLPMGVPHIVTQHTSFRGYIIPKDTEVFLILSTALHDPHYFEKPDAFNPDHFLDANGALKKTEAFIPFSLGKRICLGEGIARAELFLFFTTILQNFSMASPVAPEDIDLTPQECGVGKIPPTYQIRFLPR
# Sequence of kappa (h) (KOP) (agonist radioligand) (P41145 whole entry): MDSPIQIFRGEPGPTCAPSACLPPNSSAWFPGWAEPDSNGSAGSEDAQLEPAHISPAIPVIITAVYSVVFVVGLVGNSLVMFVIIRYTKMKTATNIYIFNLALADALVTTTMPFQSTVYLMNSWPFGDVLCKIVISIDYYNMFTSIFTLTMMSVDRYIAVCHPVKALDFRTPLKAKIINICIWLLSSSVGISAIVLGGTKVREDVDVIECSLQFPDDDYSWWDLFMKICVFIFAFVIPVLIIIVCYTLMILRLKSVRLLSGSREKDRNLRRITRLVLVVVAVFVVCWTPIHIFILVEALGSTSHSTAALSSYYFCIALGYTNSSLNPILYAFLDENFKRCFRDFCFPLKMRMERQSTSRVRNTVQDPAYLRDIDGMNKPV
# Sequence of D2L (h) (antagonist radioligand) (P14416 whole entry): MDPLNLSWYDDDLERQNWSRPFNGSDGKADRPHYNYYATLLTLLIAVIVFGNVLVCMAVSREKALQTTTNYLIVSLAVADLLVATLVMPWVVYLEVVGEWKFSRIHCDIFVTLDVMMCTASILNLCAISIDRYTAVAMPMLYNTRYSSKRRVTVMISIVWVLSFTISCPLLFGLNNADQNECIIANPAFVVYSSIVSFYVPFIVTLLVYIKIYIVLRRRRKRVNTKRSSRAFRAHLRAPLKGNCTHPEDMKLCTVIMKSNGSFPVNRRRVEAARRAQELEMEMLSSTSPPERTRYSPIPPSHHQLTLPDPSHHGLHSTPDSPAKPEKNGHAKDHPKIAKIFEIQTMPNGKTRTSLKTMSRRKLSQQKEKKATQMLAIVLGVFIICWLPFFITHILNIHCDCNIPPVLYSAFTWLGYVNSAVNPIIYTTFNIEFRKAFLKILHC
"signal, kappa (h) (KOP) (agonist radioligand) [1]","signal, D2L (h) (antagonist radioligand) [2] [%]",CLint (CYP2C8) [µL/min/pmol],t1/2 (CYP2C8),Substrates of CYP3A4 (CYP3A4),t1/2 [4],Remaining Percentages (%) 0 min [4] [%],CLint (CYP2E1) [µL/min/pmol],t1/2 (CYP2E1),Substrates of CYP2D6 (CYP2D6),"Remaining Percentages (%) 0 min ([5]; dog whole blood, 37C) [%]",CLint (CYP2B6) [µL/min/pmol],t1/2 (CYP2B6),Structure (SMILES),also measured
greater than 25%,0.32,0.00,∞,"Rac, R and S",∞,100.00,0.00,∞,"Rac, R and S",100.00,0.00,∞,"O[C@@](CCN1CCCCC1)(c1ccccc1)C1CCCCC1 [(R)-THP, (R)-trihexyphenidyl]","signal, kappa (h) (KOP) (agonist radioligand) ([1]; listed as R-THP): 26.19%; CLint scaled at 1 μM ([3]; cryopreserved hepatocytes): 55.7 mL/min/kg; half-life at 1 μM ([3]; cryopreserved hepatocytes): 63.3 min; hepatocyte CLint at 1 μM ([3]; cryopreserved hepatocytes): 21.9 µL/min/1e6 cells; half-life (CYP3A4; human): 30.7 min; t1/2 ([5]; dog whole blood, 37C): ∞"
,,,,,∞,100.00,,,,100.00,,,"C[C@@H](C[N+](C)(C)C)OC(N)=O.[Cl-] [(S)-BTC, (S)-bethanechol]","Predicted Hepatic CLH ([3]; hepatocytes): 0 mL/min/kg; in vitro t1/2 ([3]; hepatocytes): ∞; t1/2 ([5]; dog, blood): ∞"
34.64%,28.50,0.00,∞,"Rac, R and S",,,0.00,∞,"Rac, R and S",,0.00,∞,"O[C@](CCN1CCCCC1)(c1ccccc1)C1CCCCC1 [(S)-THP, (S)-trihexyphenidyl]",

# From patent US12290513B2, “Therapeutic methods and compositions for treating movement disorders” (Vima Therapeutics, Inc., priority 2023, dated 2025)
